According to patent publication US20220378676A1, “COMPOSITION FOR ENHANCING SKIN ELASTICITY OR IMPROVING SKIN WRINKLES” (AMOREPACIFIC CORPORATION, priority 2021, published 2022):

Legend:
[1] = test system: MMP-1; assay: Inhibition of MMP-1 expression in an artificial skin model (immunocytochemistry, image analysis); type: cell-based; conditions: full-thickness human 3D-skin model, PM2.5 100 ug/mL, 50 uM, 100 uM, 48 hours
Description: The effect of 2-IPMA on the skin was evaluated using a full-thickness human three-dimensional (3-D)-skin model. The full-thickness human 3D-skin model was fabricated in the following way. An artificial dermal layer was formed by loading a mixture of collagen (Nutragen, Advanced Biomatrix Inc.) and fibroblasts (NDFn, ThermoFisher Inc.) in a volume of 400 ul in Transwell® (Corning Inc.). Thereafter, a fibroblast culture medium (M106, Gibco Inc.) was put on the artificial dermal layer and cultured for 7 days to stabilize the artificial dermal layer. Next, keratinocytes (HEKn, ThermoFisher Inc.) were seeded on the artificial dermal layer, and cultured in keratinocyte culture medium (EpiLife, Gibco Inc.) for 1 day, followed by epidermal layer production medium (CnT-3DPR, CellnTEC) for 1 day, and then cultured in the same epidermal layer production medium for 10 days in a state of exposure to air to form an artificial epidermal layer, thereby constructing a full-thickness human 3D-skin model. 100 ug/mL of particulate matter (PM2.5) and 2-isopropylmalic acid (50 uM, 100 uM) were treated in the full-thickness human three-dimensional skin model constructed in this way for 48 hours. Thereafter, hematoxylin-eosin (H&E) staining and MMP-1 immunocytochemistry were performed, and the results were shown in FIG. 10.

[2] = test system: MMP-1; assay: MMP-1 expression in particulate matter-treated fibroblasts (western blotting); type: cell-based; conditions: human-derived fibroblasts, PM2.5, 100 μM, 24 hours
[3] = test system: TNF-α; assay: TNF-α expression in particulate matter-treated fibroblasts (ELISA); type: cell-based; conditions: human-derived fibroblasts, PM2.5 50 ug/mL, 100 μM, 24 hours
Description: (§1) Human-derived fibroblasts (LONZA Inc.) were transfected with siRNA for IFT88 (siIFT88) or scrambled siRNA (SC), respectively, and then were treated with 50 ug/mL of particulate matter (PM2.5) and 100 μM of 2-isopropylmalic acid for 24 hours. Thereafter, the expression levels of IL-6 and TNF-α, which were inflammatory cytokines, were measured in culture conditions by ELISA assay, and the results were shown in FIG. 9.

[4] = test system: RPE/Smo-GFP primary cilia model cells; assay: Assessment of activation of primary cilia inhibited by particulate matter (PM2.5); type: cell-based, human; conditions: PM2.5 50 ug/ml, 100 μM, 24 hours
Description: Particulate matter (PM2.5) was treated in RPE/Smo-GFP, which was the primary cilia model cells of Experimental Example 2. Specifically, particulate matter was directly collected in the air (37.34° N, 127.27° E, 167 m above sea level) using a Teflon filter (Teflon filter, Zefluor, Pall Life Science, Ann Arbor, Mich., USA). Then, this was treated at a concentration of 50 ug/ml in the cell culture medium. Thereafter, after treatment with 100 μM of 2-isopropylmalic acid for 24 hours, the fluorescence of Smo-GFP was visually observed using a fluorescence microscope, and then the production rate and length of primary cilia were measured and shown in FIGS. 4 and 5. The production rate of primary cilia was expressed as the ratio of the number of cells having primary cilia to the total number of cells as a percentage, and the length of primary cilia was a measure of the actual length of all cilia observed under a microscope. As a positive control, SAG (SMO agonist, Calbiochem Inc.), which was a primary cilia production promoting substance, was used.

[5] = test system: c-Jun; assay: c-Jun phosphorylation in particulate matter-treated fibroblasts (western blotting); type: cell-based; conditions: human-derived fibroblasts, PM2.5, 100 μM, 24 hours; effect similar to SP600125
Description: Human-derived fibroblasts (LONZA Inc.) were treated with particulate matter (PM2.5). Then, after treatment with 100 μM of 2-isopropylmalic acid for 24 hours, cell lysate was made, protein was quantified, and the same amount of protein was separated by electrophoresis, and c-Jun, p-c-Jun (phosphorylated c-Jun) was performed by western blotting.

[6] = test system: IL-6; assay: IL-6 expression in particulate matter-treated fibroblasts (ELISA); type: cell-based; conditions: human-derived fibroblasts, PM2.5 50 ug/mL, 100 μM, 24 hours
Description: as §1

[7] = test system: RPE/Smo-GFP primary cilia model cells; assay: Assessment of primary ciliary activation (confocal microscopy); type: cell-based, human; conditions: 20 μM, 100 μM, 24 hours, vs control group
Description: In order to confirm the primary cilia activation effect of 2-isopropylmalic acid, RPE/Smo-GFP, primary cilia model cells, was prepared. Specifically, human telomerase-immortalized retinal pigmented epithelial (RPE) cells (ATCC Inc.) were transformed with Smo-GFP plasmid (Addgene Inc.) to prepare RPE/Smo-GFP. After treating RPE/Smo-GFP with 2-isopropylmalic acid (Sigma Aldrich Inc.) at different concentrations (20 μM, 100 μM) for 24 hours, the primary cilia production rate and primary cilia length were measured by confocal microscopy (LSM510; Carl Zeiss Microimaging Inc., Thornwood, N.Y.) and the results were shown in FIGS. 2 and 3. The production rate of primary cilia was expressed as the ratio of the number of cells having primary cilia to the total number of cells as a percentage, and the length of primary cilia was a measure of the actual length of all cilia observed under a microscope. As a positive control, SAG (SMO agonist, Calbiochem Inc.), which was a primary cilia production promoting substance, was used.

[8] = test system: collagen; assay: Collagen expression in particulate matter-treated fibroblasts (western blotting); type: cell-based; conditions: human-derived fibroblasts, PM2.5, 100 μM, 24 hours

CC(C)C(O)(CC(=O)O)C(=O)O (stereo not shown) [2-isopropylmalic acid]
expression of MMP-1 increased by the particulate matter [1]: decreased | MMP-1 expression [2]: decreased | expression of TNF-α increased by particulate matter [3]: reduced | length of primary cilia [4]: getting longer | production of primary cilia suppressed by particulate matter [4]: restored | phosphorylation of c-Jun by particulate matter [5]: suppressed | expression of IL-6 increased by particulate matter [6]: reduced | length of primary cilia [7]: increased | proportion of cells with primary cilia (production rate of primary cilia) [7]: statistically significantly higher than that of the control group | collagen expression [8]: increased
